Reference: PubChem BioAssay AID1963425 (Molecular Pharmacology Branch, DTP, NCI, 2024)
Where “and” joins values, the source holds several entries; their conditions need not be identical. Equal entries are not always repeated.

System: 323965-272-R-J2-PDC complex spheroid growth, % test/control
Experiment: Anticancer human tumor 323965-272-R-J2-PDC patient-derived pancreatic carcinoma cell line growth inhibition [Asc]
Details: for viability, T/C: stronger effect = lower value
Outline: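 Spheroid model: tumor line + HUVEC + hMSC. Single agents and combinations; top conc. at/near clinical Cmax (10 microM if undetermined), half-log dilutions. DMSO stocks at 800-fold test concentration.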

[1] = curve of first compound, second compound 0.0316 µM
[2] = curve of first compound, second compound 0.1 µM
[3] = curve of first compound, second compound 0.316 µM
[4] = curve of first compound, second compound 1 µM
[5] = curve of first compound, second compound 3.16 µM
[6] = curve of first compound, second compound 10 µM
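Also: compound exposure lasted 7 days starting three days after spheroid seeding.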
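For viability, T/C in this document: 100% = DMSO vehicle control wells with viability set relative to vehicle.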

Q: What does the source list for `Cc1nc(N2CCC3(CC2)COC(C)C3N)c(CO)nc1Sc1ccnc(N)c1Cl` (stereo not drawn) + Cc1c(S(C)(=O)=O)c(-c2cc(F)cc(N3CCN(c4ccc(NS(=O)(=O)c5ccc(NC(CCN6CCC(C(=O)OCCCP(=O)(O)O)CC6)CSc6ccccc6)c(S(=O)(=O)C(F)(F)F)c5)cc4)CC3)c2)c(-c2ccc(Cl)cc2)n1C(C)C?
A: IC50 [1]: 1610 nM; IC50 [2]: 981 nM; IC50 [3]: 809 nM; IC50 [4]: 281 nM; IC50 [5]: 85.9 nM; IC50 [6]: 59.2 nM; viability, T/C (second compound 0.0316 µM, first compound 0.00949 µM): 92.9%; viability, T/C (second compound 0.0316 µM, first compound 0.03 µM): 87.9%; viability, T/C (second compound 0.0316 µM, first compound 0.0949 µM): 79.6%; viability, T/C (second compound 0.0316 µM, first compound 0.3 µM): 67.8%; viability, T/C (second compound 0.0316 µM, first compound 0.949 µM): 54.9%; viability, T/C (second compound 0.0316 µM, first compound 3 µM): 44.2%; viability, T/C (second compound 0.1 µM, first compound 0.00949 µM): 105%; viability, T/C (second compound 0.1 µM, first compound 0.03 µM): 96.2%; viability, T/C (second compound 0.1 µM, first compound 0.0949 µM): 70.6%; viability, T/C (second compound 0.1 µM, first compound 0.3 µM): 69%; viability, T/C (second compound 0.1 µM, first compound 0.949 µM): 49.1%; viability, T/C (second compound 0.1 µM, first compound 3 µM): 37.8%; viability, T/C (second compound 0.316 µM, first compound 0.00949 µM): 92.2%; viability, T/C (second compound 0.316 µM, first compound 0.03 µM): 87.2%; viability, T/C (second compound 0.316 µM, first compound 0.0949 µM): 76.1%; viability, T/C (second compound 0.316 µM, first compound 0.3 µM): 62.2%; viability, T/C (second compound 0.316 µM, first compound 0.949 µM): 48.5%; viability, T/C (second compound 0.316 µM, first compound 3 µM): 35.9%; viability, T/C (second compound 1 µM, first compound 0.00949 µM): 81%; viability, T/C (second compound 1 µM, first compound 0.03 µM): 78%; viability, T/C (second compound 1 µM, first compound 0.0949 µM): 64.8%; viability, T/C (second compound 1 µM, first compound 0.3 µM): 48.9%; viability, T/C (second compound 1 µM, first compound 0.949 µM): 36.1%; viability, T/C (second compound 1 µM, first compound 3 µM): 28.1%; viability, T/C (second compound 3.16 µM, first compound 0.00949 µM): 72.8%; viability, T/C (second compound 3.16 µM, first compound 0.03 µM): 64.3%; viability, T/C (second compound 3.16 µM, first compound 0.0949 µM): 45.8%; viability, T/C (second compound 3.16 µM, first compound 0.3 µM): 37.6%; viability, T/C (second compound 3.16 µM, first compound 0.949 µM): 29.6%; viability, T/C (second compound 3.16 µM, first compound 3 µM): 19.6%; viability, T/C (second compound 10 µM, first compound 0.00949 µM): 73.3%; viability, T/C (second compound 10 µM, first compound 0.03 µM): 59.3%; viability, T/C (second compound 10 µM, first compound 0.0949 µM): 41.7%; viability, T/C (second compound 10 µM, first compound 0.3 µM): 34.5%; viability, T/C (second compound 10 µM, first compound 0.949 µM): 23.2%; viability, T/C (second compound 10 µM, first compound 3 µM): 15%

Q: How did the viability, T/C (compound 0.00316 µM) turn out when `CCN1CCN(Cc2ccc(Nc3ncc(F)c(-c4cc(F)c5nc(C)n(C(C)C)c5c4)n3)nc2)CC1` was run?
A: 114% and 101% and 112%

Q: What about the viability, T/C (compound 0.01 µM) of the same compound?
A: 109% and 98.9% and 112%

Q: And the viability, T/C (compound 0.0316 µM)?
A: 91.6% and 94.6% and 76.7%

Q: And the viability, T/C (compound 0.1 µM)?
A: 75.6% and 84.4% and 76.1%

Q: What about the viability, T/C (compound 0.316 µM) of the same compound?
A: 65.8% and 71.8% and 68%

Q: What about the viability, T/C (compound 1 µM) of the same compound?
A: 67.9% and 74.1% and 82.3%

Q: And the IC50 (curve of compound)?
A: > 1000 nM

Q: With `O=C(c1cc(Cc2n[nH]c(=O)c3ccccc23)ccc1F)N1CCN(C(=O)C2CC2)CC1` as the compound, how does the viability, T/C (compound 0.0316 µM) read?
A: 105% and 66.7% and 98.1%

Q: What about the viability, T/C (compound 0.1 µM) of the same compound?
A: 86.6% and 102% and 89.1%

Q: And the viability, T/C (compound 0.316 µM)?
A: 101% and 116% and 79%

Q: What about the viability, T/C (compound 1 µM) of the same compound?
A: 104% and 108% and 117%

Q: What about the viability, T/C (compound 3.16 µM) of the same compound?
A: 98.2% and 110% and 94.2%

Q: And the viability, T/C (compound 10 µM)?
A: 87.7% and 91.1% and 80.9%

Q: And the IC50 (curve of compound)?
A: > 10000 nM

Q: Which results are given for `CNC(C)C(=O)NC1CN(S(=O)(=O)c2cccc(S(=O)(=O)N3CCC4CCC(C(=O)NC(c5ccccc5)c5ccccc5)N4C(=O)C(NC(=O)C(C)NC)C3)c2)CCC2CCC(C(=O)NC(c3ccccc3)c3ccccc3)N2C1=O` (stereo not drawn) + Cc1c(S(C)(=O)=O)c(-c2cc(F)cc(N3CCN(c4ccc(NS(=O)(=O)c5ccc(NC(CCN6CCC(C(=O)OCCCP(=O)(O)O)CC6)CSc6ccccc6)c(S(=O)(=O)C(F)(F)F)c5)cc4)CC3)c2)c(-c2ccc(Cl)cc2)n1C(C)C?
A: IC50 [1]: > 1000 nM; IC50 [2]: > 1000 nM; IC50 [3]: 878 nM; IC50 [4]: 745 nM; IC50 [5]: 569 nM; IC50 [6]: 324 nM; viability, T/C (second compound 0.0316 µM, first compound 0.00316 µM): 106%; viability, T/C (second compound 0.0316 µM, first compound 0.01 µM): 119%; viability, T/C (second compound 0.0316 µM, first compound 0.0316 µM): 96.3%; viability, T/C (second compound 0.0316 µM, first compound 0.1 µM): 103%; viability, T/C (second compound 0.0316 µM, first compound 0.316 µM): 99.3%; viability, T/C (second compound 0.0316 µM, first compound 1 µM): 58.4%; viability, T/C (second compound 0.1 µM, first compound 0.00316 µM): 107%; viability, T/C (second compound 0.1 µM, first compound 0.01 µM): 96.6%; viability, T/C (second compound 0.1 µM, first compound 0.0316 µM): 98.2%; viability, T/C (second compound 0.1 µM, first compound 0.1 µM): 107%; viability, T/C (second compound 0.1 µM, first compound 0.316 µM): 93%; viability, T/C (second compound 0.1 µM, first compound 1 µM): 54.1%; viability, T/C (second compound 0.316 µM, first compound 0.00316 µM): 96.9%; viability, T/C (second compound 0.316 µM, first compound 0.01 µM): 90.1%; viability, T/C (second compound 0.316 µM, first compound 0.0316 µM): 90.8%; viability, T/C (second compound 0.316 µM, first compound 0.1 µM): 86.1%; viability, T/C (second compound 0.316 µM, first compound 0.316 µM): 93.4%; viability, T/C (second compound 0.316 µM, first compound 1 µM): 44.7%; viability, T/C (second compound 1 µM, first compound 0.00316 µM): 90.2%; viability, T/C (second compound 1 µM, first compound 0.01 µM): 85.7%; viability, T/C (second compound 1 µM, first compound 0.0316 µM): 85.7%; viability, T/C (second compound 1 µM, first compound 0.1 µM): 76.7%; viability, T/C (second compound 1 µM, first compound 0.316 µM): 83%; viability, T/C (second compound 1 µM, first compound 1 µM): 38.8%; viability, T/C (second compound 3.16 µM, first compound 0.00316 µM): 79.8%; viability, T/C (second compound 3.16 µM, first compound 0.01 µM): 70.9%; viability, T/C (second compound 3.16 µM, first compound 0.0316 µM): 64%; viability, T/C (second compound 3.16 µM, first compound 0.1 µM): 75.8%; viability, T/C (second compound 3.16 µM, first compound 0.316 µM): 72%; viability, T/C (second compound 3.16 µM, first compound 1 µM): 29%; viability, T/C (second compound 10 µM, first compound 0.00316 µM): 77.4%; viability, T/C (second compound 10 µM, first compound 0.01 µM): 80.1%; viability, T/C (second compound 10 µM, first compound 0.0316 µM): 65.8%; viability, T/C (second compound 10 µM, first compound 0.1 µM): 59.8%; viability, T/C (second compound 10 µM, first compound 0.316 µM): 57%; viability, T/C (second compound 10 µM, first compound 1 µM): 22.6%
